According to patent US20250235500A1, “NEW POLYPEPTIDE FOR PROMOTING TISSUE REPAIR, AND USE THEREOF” (Jinan University, priority 2021, published 2025):
Bridge positions count the residues as written; N and C are the ends. Peptide text beside a SMILES is read from it.

Key:
[1] = tested on: skin of subjects; test: Skin safety evaluation, closed patch test; format: in vivo, human; details: TRF7 2 mg/mL, 24 h patch, 20 subjects, observed at 0.5, 6, 12, 24 and 48 h
Method: Subject population: A total of 20 subjects, comprising 10 females and 10 males aged 18-55, were selected. All subjects had healthy skin without any history of skin diseases or allergies, meeting the eligibility criteria for participation.
Test method: Qualified patch testers were selected, and a closed patch test method was adopted. Approximately 0.020-0.025 mL of the polypeptide TRF7 (2 mg/mL) was applied to the patch testers, which were then affixed to the subjects' backs using specialized adhesive tape. […] The results of the skin reactions were recorded according to the grading standards stipulated in the Hygienic Standard for Cosmetics.

[2] = tested on: stress-induced gastric ulcer in rats; test: Protective effect on stress-induced gastric ulcer in rats (restraint water-immersion); format: in vivo, SD rats; details: sucralfate 1 g/kg intragastric, 7 days; Guth standard; model group 75.1 ± 13.8
Method: Test Method: 20 male SD rats weighing 180-210 g (purchased from Guangdong Medical Experimental Animal Center) were randomly divided into five groups: a blank group, a model group, a sucralfate group (1 g/kg, a positive drug group), a low-dose TRF7 group (12.5 mg/kg), and a high-dose TRF7 group (50.0 mg/kg). The treatment groups were subjected to intragastric administration for 7 consecutive days. 24 h before modeling, the rats were subjected to […] but fed with water. […] The rats were cut open along greater curvatures of the stomach, rinsed with the normal saline, and then unfolded, damage to gastric mucosa was observed, and a gastric ulcer index was calculated. Calculating the ulcer index (UI) according to a Guth standard: punctate hemorrhage was scored as 1 point, linear hemorrhage with a length of <1 mm was scored as 2 points, linear hemorrhage with a length of 1-2 mm was scored as 3 points, linear hemorrhage with a length of 2-4 mm was scored as 4 points, linear hemorrhage with a length of >4 mm was scored as 5 points, and linear hemorrhage with a width of >1 mm was scored double points.

Molecule | skin reactions in closed patch test [1] | Ulcer inde [2]
CC(C)C[C@H](NC(=O)[C@@H]1CCCN1C(=O)[C@H](C)NC(=O)[C@H](Cc1ccc(O)cc1)NC(=O)[C@H](CO)NC(=O)CNC(=O)[C@@H]1CSSC[C@H](NC(=O)[C@H](C)N)C(=O)N2CCC[C@H]2C(=O)N[C@@H](CC(N)=O)C(=O)N[C@@H](Cc2ccc(O)cc2)C(=O)N2CCC[C@H]2C(=O)N[C@@H](Cc2ccc(O)cc2)C(=O)N1)C(=O)NCC(=O)N[C@@H](Cc1ccc(O)cc1)C(=O)N[C@@H](Cc1c[nH]cn1)C(=O)N[C@H](C(=O)N[C@@H](CCCNC(=N)N)C(=O)N[C@@H](CCC(=O)O)C(=O)N[C@@H](Cc1ccc(O)cc1)C(=O)N1CCC[C@H]1C(=O)N[C@@H](C)C(=O)NCC(=O)N[C@H](C(=O)N[C@@H](CO)C(=O)N[C@@H](C)C(=O)N[C@@H](C)C(=O)O)C(C)C)C(C)C [TRF7] (H-ACPNYPYCGSYAPLGYHVREYPAGVSAA-OH; disulfide 2-8) | no adverse skin reactions observed | –
sucralfate | – | 35.5 ± 8.7
